# Patent US9314510B2, “Human laminin α2 chain LG3 domain and active peptides promoting cell adhesion, spreading, migration, and neurite outgrowth” (SNU R&DB Foundation, priority 2011, dated 2016)
# How the values were obtained:
# PC12 cells [1] = test: Effect of Rho-kinase inhibitor on stress fibers; type: cell-based, rat; settings: cells seeded 1 h, then 10 μM for 2 h
# Experimental: PC12 cells were seeded on glass slide chambers coated with laminin, rLG3, or Ln2-LG3-P2 for 1 h. The cells were treated with […] Y27632, a selective inhibitor of Rho-associated protein kinase, for 2 h in serum-free medium and immunostained with rhodamine-phalloidin.
# PC12 cells [2] = test: Effect of PKC inhibitor pretreatment on cell adhesion, spreading, migration and stress fiber formation; type: cell-based, rat; settings: Gö6976 2.5 or 5.0 nM, rottlerin 1 or 5 μM, 15 min
# Experimental: PC12 cells were pretreated with Gö6976 or rottlerin for 15 min at 37° C. and seeded on laminin-, rLG3-, or Ln2-LG3-P2-coated plates and then, cell adhesion, spreading, migration, and stress fiber formation were observed. To observe cell adhesion, the pretreated PC12 cells were incubated for 1 h and to observe cell spreading and stress fiber formation, the pretreated PC12 cells were incubated on the coated plates for 3 h. In addition, to observe cell migration, the pretreated PC12 cells were incubated on the coated plates for 24 h.
# PC12 cells [3] = test: Effect of rottlerin on stress fibers of already spread cells; type: cell-based, rat; settings: 2.5 h incubation, then 5 μM for 30 min
# Experimental: PC12 cells were seeded on glass slide chambers coated with laminin, rLG3, or Ln2-LG3-P2. After 2.5 h incubation, the cells were treated with 5 μM rottlerin for 30 min and immunostained with rhodamine-phalloidin.
# FAK Tyr-397 = test: Effect of PKC inhibitors on FAK phosphorylation at Tyr-397; type: cell-based, rat; settings: PC12 cells pretreated with 5 nM Gö6976 or 5 μM rottlerin 15 min, laminin, rLG3, Ln2-LG3-P2 plates
# Experimental: PC12 cells were pretreated with 5 nM Gö6976 or 5 μM rottlerin for 15 min at 37° C. and seeded on laminin-, rLG3-, or Ln2-LG3-P2-coated plates for 15 min in serum-free medium.
# PKCδ = PKCδ (Homo sapiens, UniProt Q05655); settings: PKCδ inhibitor; cited from earlier work
# fibroblasts = settings: 1-3 μM; cited from earlier work
# PC12 cells [4] = test: Cell viability with PKC inhibitors; settings: at the concentrations used and duration of treatment
# PC12 cells [5] = test: Effect of PLC inhibitor on cell adhesion and spreading; type: cell-based, rat; settings: 0.5 or 1.0 μM
# PC12 cells [6] = settings: cited from earlier work
# PKCα/β = PKCα/β inhibitor; cited from earlier work
# PKCδ, sequence (Q05655 whole entry): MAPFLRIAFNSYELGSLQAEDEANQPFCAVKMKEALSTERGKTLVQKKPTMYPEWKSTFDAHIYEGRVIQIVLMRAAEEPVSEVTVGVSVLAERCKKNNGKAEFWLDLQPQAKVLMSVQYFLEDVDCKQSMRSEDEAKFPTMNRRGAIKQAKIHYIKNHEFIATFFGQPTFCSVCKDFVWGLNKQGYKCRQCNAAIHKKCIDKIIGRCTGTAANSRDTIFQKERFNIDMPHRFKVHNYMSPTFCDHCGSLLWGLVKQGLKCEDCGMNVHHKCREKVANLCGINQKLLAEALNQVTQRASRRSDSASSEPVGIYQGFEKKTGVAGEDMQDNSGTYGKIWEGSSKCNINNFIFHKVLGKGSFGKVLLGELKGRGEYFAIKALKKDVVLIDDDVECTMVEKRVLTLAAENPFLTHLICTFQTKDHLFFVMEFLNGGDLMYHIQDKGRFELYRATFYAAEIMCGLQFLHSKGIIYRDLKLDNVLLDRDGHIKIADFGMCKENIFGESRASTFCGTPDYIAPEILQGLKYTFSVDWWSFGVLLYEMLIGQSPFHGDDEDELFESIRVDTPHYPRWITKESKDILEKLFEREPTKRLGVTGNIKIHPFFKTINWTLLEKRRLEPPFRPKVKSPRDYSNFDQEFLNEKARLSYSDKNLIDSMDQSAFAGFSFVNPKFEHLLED
smiles,measurement,setting,value
C[C@@H](N)[C@H]1CC[C@H](C(=O)Nc2ccncc2)CC1 [Y27632],"stress fibers of PC12 cells to laminin, rLG3, and Ln2-LG3-P2",PC12 cells [1],completely disassembled stress fibers
CC(=O)c1c(O)c(C)c(O)c(Cc2c(O)c3c(c(C(=O)/C=C/c4ccccc4)c2O)OC(C)(C)C=C3)c1O [rottlerin],"adhesion of PC12 cells to laminin, rLG3, and Ln2-LG3-P2 after inhibitor pretreatment",PC12 cells [2]; 1 h,significantly impaired
same,"spreading of PC12 cells to laminin, rLG3, and Ln2-LG3-P2 after inhibitor pretreatment",PC12 cells [2]; 3 h,significantly impaired
same,"stress fiber formation of PC12 cells to laminin, rLG3, and Ln2-LG3-P2 after inhibitor pretreatment",PC12 cells [2]; 3 h,significantly impaired
same,"migration of PC12 cells to laminin, rLG3, and Ln2-LG3-P2 after inhibitor pretreatment",PC12 cells [2]; 24 h,significantly impaired
same,"stress fiber formation of PC12 cells already spread on laminin, rLG3, and Ln2-LG3-P2",PC12 cells [3],did not interfere with stress fiber formation
same,level of FAK phosphorylation at Tyr-397,FAK Tyr-397,reduced
same,IC50,PKCδ,3 to 6 µM
same,stress fiber formation of fibroblasts pre-spread on fibronectin,fibroblasts,does not impair stress fiber formation
same,cell viability,PC12 cells [4],did not affect cell viability
COc1ccc2c(c1)CC[C@@H]1[C@@H]2CC[C@]2(C)[C@@H](NCCCCCCN3C(=O)C=CC3=O)CC[C@@H]12 [U73122],cell adhesion to rLG3 and Ln2-LG3-P2 after inhibitor pretreatment,"PC12 cells [5]; 15 min, 1 h",reduced by U73122 in a dose-dependent manner
same,cell spreading to rLG3 and Ln2-LG3-P2 after inhibitor pretreatment,"PC12 cells [5]; 15 min, 3 h",reduced
same,cell adhesion (as printed in legend of FIG. 15B),"PC12 cells [5]; rLG3 and Ln2-LG3-P2 plates, 3 h",reduced by U73122 in a dose-dependent manner
same,α1β1 integrin-mediated PC12 cell adhesion,PC12 cells [6],reduced
Cn1c2ccccc2c2c3c(c4c5ccccc5n(CCC#N)c4c21)CNC3=O [Gö6976],"spreading of PC12 cells to laminin, rLG3, and Ln2-LG3-P2 after inhibitor pretreatment",PC12 cells [2]; 3 h,not with Gö6976 significantly impaired
same,level of FAK phosphorylation at Tyr-397,FAK Tyr-397,did not affect
same,IC50,PKCα/β,0.0023 µM
same,cell viability,PC12 cells [4],did not affect cell viability
